Laboratory results: patent US11457624B2, “Adjuvant compositions for plant treatment chemicals” (CORBET SCIENTIFIC, LLC, priority 2016, dated 2022)

How the values were obtained:
[1] = test system: bacterial spot (Xanthomonas euvesicatoria) on pepper; test: Bacterial spot on pepper, field trial (disease severity, AUDPC); format: in vivo
Procedure: (§1) Field studies were conducted at the University of Florida, Southwest Florida Research and Education Center, Immokalee, Fla. For pepper trials, average monthly high and low temperatures were 98° F. and 70° F. in month one; 94° F. and 63° F. in month two; and 94° F. and 51° F. in month three; rainfall totaled 11.02, 0.95, and 2.41 inches for the same monthly periods, respectively. For squash trials, average monthly high and low temperatures were 93° F. and 45° F. in month one; 96° F. and 55° F. in month two; and 96° F. and 55° F. in month three; rainfall totaled 2.00, 3.35, and 5.59 inches for the same monthly periods, respectively.
(§2) In all trials, seedlings were transplanted into Immokalee fine sand on day 0. Treatments were arranged in a complete randomized block treatment design with four replicates. For pepper trials, ‘Capistrano’ seedlings were arranged in plots comprising 10 plants in a single row spaced 10 inches apart within a 36 inch wide row with 5 feet between each plot and 12 feet center to center between rows. For squash trials, four week old ‘Dixie’ plants were arranged in plots comprising eight plants spaced 3 feet apart with a 27 foot row and with 10 feet between each plot.
(§3) Each treatment formulation was spray applied. For pepper trials, treatment formulations were applied using a backpack CO2 sprayer at 40 psi with a single hollow-cone nozzle at 30 gal/A. Silicon was applied as sodium metasilicate nonahydrate (Na2SiO3.9H2O). For squash trials, treatment formulations were applied with a high clearance sprayer 2 mph and at 200 psi. A double drop boom equipped with six nozzles delivered a spray volume of 90 gal/A for tomato plants or 80 gal/A for squash plants.
For pepper trials, a suspension of inoculum of bacterial spot containing strains of several races was applied at day 22 and new inoculum was introduced periodically throughout the remainder of the trial.
(§4) For each trial, disease severity was assessed by visually estimating the percentage of foliage with symptoms of disease. For pepper trials, plants were examined for symptoms of bacterial spot. For squash trials, plants were examined for powdery mildew. The area under the disease progress curve (AUDPC) was calculated from disease severity ratings. In some trials, fruit was harvested and evaluated for the amount of marketable fruit produced per plot. Data were analyzed within the statistical program of ARM 9.1 (pepper trials) or ARM 9.0 (tomato and squash trials) by ANOVA and means separated by LSD.
Transplanted Capsicum annuum ‘Capistrano’ pepper seedlings were grouped into one of six treatment groups. Group one was an untreated control. The remaining five groups were spray treated with formulations that differed in their chemical compositions (Table 7).
plants on days 14, 21, 28, 35, 42, 49, 56, 64, 71, 77, and 84. Plants were inoculated with a bacterial suspension (Xanthomonas euvesicatoria) on day 22 and periodically throughout the remainder of the trial. […]

[2] = test system: Capsicum annuum Capistrano pepper plants; test: Pepper harvest data, field trial; format: in vivo
Procedure: as §1, §2, §3, §4
Fruit was harvested on days 61 and 83.

[3] = test system: woody shrubs and mixed grasses; conditions: general statement, no source given; cited from earlier work
[4] = sprays A-K, rates as in Table 7

Row | SMILES | AUDPC (area under the disease progress curve) ([1]; calculated from disease severity ratings) [ab] | Disease Severity Day 41 ([1]; sprays A-K (Day 14-84), rates as in Table 7, inoculated day 22) | Disease Severity Day 47 [1, 4] | Disease Severity Day 58 [1, 4] | Disease Severity Day 61 [1, 4] | Disease Severity Day 71 [1, 4] | Marketable Fruit in Pound per Plot ([2]; Day 61) [a Pound per Plot] | Number of Marketable Fruit per Plot ([2]; Day 61) [a per Plot] | Marketable Number of Fruit per Plot ([2]; Day 83) [a per Plot] | Marketable fruit weight per plot ([2]; Day 83) [a Pound per Plot] | Non-Marketable Fruit in Pound per Plot ([2]; Day 83) [a Pound per Plot] | Non-Marketable Fruit per Plot ([2]; Day 83) [ab per Plot] | time normally required to begin to see an effect on grassy plants [3]
1 | O.O.O.O.O.O.O.O.O.O=[Si]([O-])[O-].[Na+].[Na+] [Silicon, sodium metasilicate nonahydrate] | 518.42 | 10.3 a percentage of symptomatic foliage | 21.5 a percentage of symptomatic foliage | 21.3 ab percentage of symptomatic foliage | 15 ab percentage of symptomatic foliage | 22.5 ab percentage of symptomatic foliage | 2.9 | 12 | 26.3 | 7.38 | 0.35 | 1 | –
2 | CC(C)C1(C)N=C(c2ncccc2C(=O)O)NC1=O (stereo not shown) [Imazapyr] | – | – | – | – | – | – | – | – | – | – | – | – | 2-5 months
